Measured values published in ChEMBL document CHEMBL1201862, “PubChem BioAssay data set” (2004).
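Protocol summary: plate cells (96-well), add compound at 5 concentrations, incubate 48 h, interpolate endpoints linearly. Abbreviation: GI50, concentration required for 50% inhibition of growth.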 Activity calls are given as the source filed them. Cut-off read from the data, not from the text of the source: active = GI50 up to about 1.1 µM and inactive = higher.

Experiments:
Test in all cases: inhibition of tumour cell growth, NCI panel, 48 h
[1] = system: LOX IMVI
[2] = system: PC-3
[3] = system: HCC 2998
[4] = system: SN12C
[5] = system: OVCAR-4
[6] = system: K562
[7] = system: NCI-H460
[8] = system: OVCAR-8
[9] = system: A549
[10] = system: SK-OV-3
[11] = system: NCI-H23
[12] = system: SK-MEL-28
[13] = system: SF-268
[14] = system: NCI-H522
[15] = system: SW-620
[16] = system: SR
[17] = system: UO-31
[18] = system: M14
[19] = system: A498
[20] = system: DU-145

Row | Compound | GI50 [1] | GI50 [2] | GI50 [3] | GI50 [4] | GI50 [5] | GI50 [6] | GI50 [7] | GI50 [8] | GI50 [9] | GI50 [10] | GI50 [11] | GI50 [12] | GI50 [13] | GI50 [14] | GI50 [15] | GI50 [16] | GI50 [17] | GI50 [18] | GI50 [19] | GI50 [20]
1 | CCC1=C(C=O)c2cc3[nH]c(cc4nc(c5c6[nH]c(cc1n2)c(C)c6C(=O)C5C(=O)OC)C(CCC(=O)OC)C4C)c(C)c3CC (stereo not given) | > 100 µM (inactive) | > 100 µM (inactive) | > 100 µM (inactive) | > 100 µM (inactive) | > 100 µM (inactive) | > 100 µM (inactive) | > 100 µM (inactive) | > 100 µM (inactive) | > 100 µM (inactive) | > 100 µM (inactive) | > 100 µM (inactive) | > 100 µM (inactive) | > 100 µM (inactive) | > 100 µM (inactive) | > 100 µM (inactive) | > 100 µM (inactive) | > 100 µM (inactive) | > 100 µM (inactive) | > 100 µM (inactive) | > 100 µM (inactive)
2 | O=C1N/C(=N/N=C\c2ccccc2)N/C1=C/c1ccccc1 | 35.9 µM (inactive) | 24.9 µM (inactive) | 13.9 µM (inactive) | 39.7 µM (inactive) | 15.2 µM (inactive) | 21.3 µM (inactive) | 20.6 µM (inactive) | 26.2 µM (inactive) | 35.7 µM (inactive) | 37.7 µM (inactive) | 21.7 µM (inactive) | 85.1 µM (inactive) | 27.3 µM (inactive) | 23.1 µM (inactive) | 38.5 µM (inactive) | 16.1 µM (inactive) | 41.9 µM (inactive) | 45.4 µM (inactive) | 30.9 µM (inactive) | 22.3 µM (inactive)
3 | COc1ccc(-c2cn3c(nc4ccccc43)c(C)n2)cc1 | > 93.5 µM (inactive) | 72.3 µM (inactive) | > 100 µM (inactive) | > 77.1 µM (inactive) | 47.6 µM (inactive) | > 100 µM (inactive) | 60.1 µM (inactive) | 34.4 µM (inactive) | 86.5 µM (inactive) | 10.2 µM (inactive) | 50.4 µM (inactive) | 95.5 µM (inactive) | > 51.5 µM (inactive) | 39.1 µM (inactive) | > 100 µM (inactive) | > 77.4 µM (inactive) | 13.7 µM (inactive) | > 100 µM (inactive) | > 76.4 µM (inactive) | 51.1 µM (inactive)
4 | N#C/C(=C\Nc1ccccn1)C(=O)c1ccco1 | > 100 µM (inactive) | > 100 µM (inactive) | > 100 µM (inactive) | > 100 µM (inactive) | > 100 µM (inactive) | > 100 µM (inactive) | > 100 µM (inactive) | > 100 µM (inactive) | > 100 µM (inactive) | > 100 µM (inactive) | > 100 µM (inactive) | > 100 µM (inactive) | > 100 µM (inactive) | > 100 µM (inactive) | > 100 µM (inactive) | > 100 µM (inactive) | > 100 µM (inactive) | > 100 µM (inactive) | > 100 µM (inactive) | > 100 µM (inactive)
5 | CN(C)C(=O)Oc1ccc(-c2cn3cc(NC(=O)c4ccccc4)ccc3n2)cc1 | 53 µM (inactive) | > 100 µM (inactive) | 52 µM (inactive) | > 100 µM (inactive) | 55 µM (inactive) | 19.5 µM (inactive) | 73.3 µM (inactive) | > 100 µM (inactive) | 83.4 µM (inactive) | > 100 µM (inactive) | > 100 µM (inactive) | > 100 µM (inactive) | 80.4 µM (inactive) | 26.4 µM (inactive) | 48.5 µM (inactive) | 29.3 µM (inactive) | > 100 µM (inactive) | > 100 µM (inactive) | > 100 µM (inactive) | > 100 µM (inactive)
6 | O=C(O)c1ccc(NC(c2ccccc2)c2ccc3cccnc3c2O)cc1 (stereo not given) | 7.8 µM (inactive) | 9.57 µM (inactive) | 13 µM (inactive) | 6.87 µM (inactive) | 4.63 µM (inactive) | 3.56 µM (inactive) | 4.09 µM (inactive) | 3.85 µM (inactive) | 5.94 µM (inactive) | 13.6 µM (inactive) | 14.7 µM (inactive) | 11.2 µM (inactive) | 7.1 µM (inactive) | 4.06 µM (inactive) | 5.77 µM (inactive) | 3.32 µM (inactive) | 5.75 µM (inactive) | 6.19 µM (inactive) | 18.3 µM (inactive) | 17.7 µM (inactive)
7 | COC1CC(N)(c2ccccc2)C(O)C(C)O1 (stereo not given) | > 100 µM (inactive) | > 100 µM (inactive) | > 100 µM (inactive) | > 100 µM (inactive) | > 100 µM (inactive) | > 100 µM (inactive) | > 100 µM (inactive) | > 100 µM (inactive) | > 100 µM (inactive) | > 100 µM (inactive) | > 100 µM (inactive) | > 100 µM (inactive) | > 100 µM (inactive) | > 100 µM (inactive) | > 100 µM (inactive) | > 100 µM (inactive) | > 100 µM (inactive) | > 100 µM (inactive) | > 100 µM (inactive) | > 100 µM (inactive)
8 | Cc1ccc2c(c1)c1ccc3c(c1n2C)C(=O)C=CC3=O | 9.53 µM (inactive) | 3.66 µM (inactive) | 9.77 µM (inactive) | 3.52 µM (inactive) | 2.32 µM (inactive) | 0.468 µM (active) | > 10 µM (inactive) | 2.18 µM (inactive) | > 10 µM (inactive) | > 10 µM (inactive) | 2.62 µM (inactive) | 2.18 µM (inactive) | 3.43 µM (inactive) | 1.23 µM (inactive) | 0.543 µM (active) | 0.27 µM (active) | 1.41 µM (inactive) | 2.05 µM (inactive) | 2.88 µM (inactive) | 7.33 µM (inactive)
9 | CC(NC1=NCCO1)c1cccc([N+](=O)[O-])c1 (stereo not given) | > 100 µM (inactive) | > 100 µM (inactive) | > 100 µM (inactive) | > 100 µM (inactive) | > 100 µM (inactive) | > 100 µM (inactive) | > 100 µM (inactive) | > 100 µM (inactive) | > 100 µM (inactive) | > 100 µM (inactive) | > 100 µM (inactive) | > 100 µM (inactive) | > 100 µM (inactive) | > 100 µM (inactive) | > 100 µM (inactive) | > 100 µM (inactive) | > 100 µM (inactive) | > 100 µM (inactive) | > 100 µM (inactive) | > 100 µM (inactive)
10 | CO[C@H]1[C@@H](O)[C@@H](C)O[C@@H](O[C@H]2CC[C@@]3(C)[C@H](CC[C@@H]4[C@@H]3CC[C@]3(C)[C@@H](C5=CC(=O)OC5)[C@@H](OC(C)=O)C[C@]43O)C2)[C@@H]1O [NERITALOSIDE] | 0.0708 µM (active) | 0.0256 µM (active) | 0.23 µM (active) | 0.0152 µM (active) | 0.0601 µM (active) | 0.141 µM (active) | 0.0165 µM (active) | 0.0723 µM (active) | 0.0104 µM (active) | 0.0807 µM (active) | 0.027 µM (active) | 0.291 µM (active) | 0.024 µM (active) | 0.0142 µM (active) | 0.111 µM (active) | 0.0533 µM (active) | 0.0177 µM (active) | 0.0904 µM (active) | 0.281 µM (active) | 0.0176 µM (active)
11 | O=C(O)C(Br)C(Br)c1ccccc1[N+](=O)[O-] (stereo not given) | > 100 µM (inactive) | > 100 µM (inactive) | > 100 µM (inactive) | > 100 µM (inactive) | > 100 µM (inactive) | > 100 µM (inactive) | > 100 µM (inactive) | > 100 µM (inactive) | > 100 µM (inactive) | > 100 µM (inactive) | > 100 µM (inactive) | > 100 µM (inactive) | > 100 µM (inactive) | 16.3 µM (inactive) | > 100 µM (inactive) | > 100 µM (inactive) | 5.46 µM (inactive) | > 100 µM (inactive) | > 100 µM (inactive) | > 100 µM (inactive)
12 | CCOCC(=O)N[C@H]1CCc2cc(OC)c(OC)c(OC)c2-c2ccc(OC)c(=O)cc21 | < 0.0125 µM (active) | < 0.0154 µM (active) | 0.0141 µM (active) | 0.0239 µM (active) | 3.62 µM (inactive) | < 0.0128 µM (active) | 0.0165 µM (active) | 0.0194 µM (active) | 0.0211 µM (active) | 0.111 µM (active) | 0.0132 µM (active) | 2.23 µM (inactive) | 0.0233 µM (active) | 0.0143 µM (active) | 0.0169 µM (active) | < 0.0206 µM (active) | 3.56 µM (inactive) | 0.0179 µM (active) | 0.0229 µM (active) | 0.0213 µM (active)
13 | Cc1cccc(O)c1-c1nnc(CCCCCCCCc2nnc(-c3c(C)cccc3O)n2N)n1N | 45.2 µM (inactive) | > 100 µM (inactive) | > 100 µM (inactive) | > 100 µM (inactive) | 18.7 µM (inactive) | > 100 µM (inactive) | 24.3 µM (inactive) | 1.86 µM (inactive) | > 46.5 µM (inactive) | > 60.5 µM (inactive) | 48.6 µM (inactive) | > 50.2 µM (inactive) | 51.3 µM (inactive) | 1.07 µM (active) | > 100 µM (inactive) | 19.1 µM (inactive) | 68.5 µM (inactive) | > 39.7 µM (inactive) | > 100 µM (inactive) | > 100 µM (inactive)
14 | COC(=O)c1ccccc1NC(=O)C(=O)CC(=O)c1ccccc1NC1=CC(=O)C(=O)c2ccccc21 | 1.68 µM (inactive) | 10.9 µM (inactive) | 25.6 µM (inactive) | 3.94 µM (inactive) | 7.91 µM (inactive) | 2.91 µM (inactive) | 19.7 µM (inactive) | 7.01 µM (inactive) | 16.3 µM (inactive) | 32.5 µM (inactive) | 5.09 µM (inactive) | 13.1 µM (inactive) | 5.96 µM (inactive) | 5.22 µM (inactive) | 5.4 µM (inactive) | 2.67 µM (inactive) | 15.1 µM (inactive) | 5.12 µM (inactive) | > 56.2 µM (inactive) | 23.2 µM (inactive)
